According to article PMC12596195, “Mei5–Sae3 stabilizes both active and inactive forms of Dmc1 filaments independently of its impact on ATP hydrolysis” (Nucleic Acids Research, 2025):

Columns and labels:
ScDmc1 (Dmc1–WT) = biological target: T1, ScDmc1 (Dmc1–WT) (Saccharomyces cerevisiae, UniProt P25453); assay: nitrocellulose filter binding; settings: 3 µM Dmc1, 90 nt ssDNA (6 µM nt), 5 mM Mg2+, 70 µM Ca2+, pH 7.5, 30°C; labelled compound (alpha-32P); read-out: KD (apparent)
T1 construct: N-terminal 6x-His tag (kept), expressed in E. coli; nucleoprotein filament on 90 nt ssDNA
T1 sequence (P25453 1-334): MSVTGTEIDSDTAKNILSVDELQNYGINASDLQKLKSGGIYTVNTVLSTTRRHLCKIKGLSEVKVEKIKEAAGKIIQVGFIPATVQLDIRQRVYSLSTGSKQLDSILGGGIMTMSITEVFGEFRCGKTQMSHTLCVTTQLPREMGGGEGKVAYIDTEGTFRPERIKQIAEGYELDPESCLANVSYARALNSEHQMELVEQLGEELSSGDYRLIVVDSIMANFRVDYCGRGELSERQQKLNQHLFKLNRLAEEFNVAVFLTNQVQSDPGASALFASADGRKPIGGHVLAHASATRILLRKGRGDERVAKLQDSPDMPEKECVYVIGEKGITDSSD
Source text: nitrocellulose filter binding on ScDmc1 (Dmc1–WT) | Dmc1–WT binds ATP with the same apparent affinity in the presence and absence of Mei5–Sae3

ScDmc1 = biological target: T2, ScDmc1 (Saccharomyces cerevisiae, UniProt P25453, E157D); assay: nitrocellulose filter binding; settings: 3 µM Dmc1, 90 nt ssDNA (6 µM nt), 5 mM Mg2+, 70 µM Ca2+, pH 7.5, 30°C; labelled compound (alpha-32P)
T2 construct: gene DMC1; N-terminal 6x-His tag (kept), expressed in E. coli; nucleoprotein filament on 90 nt ssDNA
T2 sequence (P25453 1-334 E157D): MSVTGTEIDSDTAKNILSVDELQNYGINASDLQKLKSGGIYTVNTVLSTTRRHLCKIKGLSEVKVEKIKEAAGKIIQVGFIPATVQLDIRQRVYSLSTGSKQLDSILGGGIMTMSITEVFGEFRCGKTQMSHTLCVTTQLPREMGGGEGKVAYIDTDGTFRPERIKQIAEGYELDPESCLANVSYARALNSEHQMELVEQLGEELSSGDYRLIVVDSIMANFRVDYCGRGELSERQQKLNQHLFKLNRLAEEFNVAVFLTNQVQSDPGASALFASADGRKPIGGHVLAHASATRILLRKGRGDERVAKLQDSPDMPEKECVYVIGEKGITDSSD

Kd (ScDmc1 (Dmc1–WT)): 5 to 6 µM
SMILES: Nc1ncnc2c1ncn2[C@@H]1O[C@H](COP(=O)(O)OP(=O)(O)OP(=O)(O)O)[C@@H](O)[C@H]1O [ATP]
nitrocellulose filter binding (ScDmc1): ATP binding activity of Dmc1–E157D and found it was significantly reduced
